Target: T1, endothelin-converting enzyme (ECE) (Homo sapiens, UniProt P42892)
T1 sequence (P42892 1-770): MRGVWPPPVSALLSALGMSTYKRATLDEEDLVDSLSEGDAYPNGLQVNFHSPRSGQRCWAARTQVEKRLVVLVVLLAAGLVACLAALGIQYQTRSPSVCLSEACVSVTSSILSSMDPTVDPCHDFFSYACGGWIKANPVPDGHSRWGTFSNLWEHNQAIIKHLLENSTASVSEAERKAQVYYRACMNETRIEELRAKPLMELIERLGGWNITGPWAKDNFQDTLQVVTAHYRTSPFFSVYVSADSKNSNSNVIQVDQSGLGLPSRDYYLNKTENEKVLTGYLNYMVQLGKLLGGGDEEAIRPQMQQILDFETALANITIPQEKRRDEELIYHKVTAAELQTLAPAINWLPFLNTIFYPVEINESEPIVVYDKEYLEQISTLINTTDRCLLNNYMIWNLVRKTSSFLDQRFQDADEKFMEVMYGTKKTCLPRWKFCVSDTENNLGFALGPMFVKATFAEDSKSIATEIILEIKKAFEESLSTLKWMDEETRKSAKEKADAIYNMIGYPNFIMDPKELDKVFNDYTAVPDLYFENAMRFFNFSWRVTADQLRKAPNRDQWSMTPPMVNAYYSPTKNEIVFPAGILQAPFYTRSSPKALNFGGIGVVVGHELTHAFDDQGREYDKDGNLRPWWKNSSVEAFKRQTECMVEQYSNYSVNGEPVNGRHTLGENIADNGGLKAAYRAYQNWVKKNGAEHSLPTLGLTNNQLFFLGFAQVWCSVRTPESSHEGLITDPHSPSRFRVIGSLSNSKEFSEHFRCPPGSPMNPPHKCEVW
Test: Determination of the inhibitory activity of the endothelin-converting enzyme (ECE), cleavage of (2,3-3H)propionyl-b-ET-1(19-35)
Type: biochemical
Conditions: purified ECE, pre-incubation 30 minutes at 37° C., Tris maleate buffer pH=6.5, incubation one hour at 37° C.; read-out: IC50 (concentration which causes a 50% inhibition of ECE)
From the text: A test is used, in which the product (2,3-^3H)propionyl-b-ET-1(19-35) prepared as indicated below in a) is cleaved by ECE into the product (2,3-^3H)propionyl-b-ET-1(19-21) in the presence of product P of which the inhibitory activity of ECE one wishes to determine as indicated below in b): the inhibitory activity of ECE of the product P will therefore be accordingly as high as the quantity of product of formula (II) formed, determined by counting the radioactivity, will be low. The operation is carried out as follows:
10 μl of ECE i.e. 1 to 2 μg of purified ECE are pre-incubated for 30 minutes at 37° C., in 400 μl of a 50 mM Tris maleate buffer pH=6.5, 20 μl of 5M sodium chloride and 5 μl of product P the inhibitory activity of which one wishes to test, in solution at different concentrations (comprised between […]) (i.e. final concentrations in product P of 10 nM to 1 mM).
The reaction is initiated by the addition of 10 μl of (2,3-^3H)propionyl-b-ET-1(19-35) prepared as indicated above in a), at a final concentration of 1.8.10^−12M.
After incubation for one hour at 37° C., the reaction is stopped by the addition of 600 μl of ethyl acetate and the (2,3-^3H)propionyl-b-ET-1(19-21) is extracted by mechanical agitation for 2 minutes.
300 μl of the organic phase is removed, 5 ml of liquid scintillator is added and the radioactivity is counted for 1 minute with a liquid scintillation counter.
Each measurement is carried out in triplicate except for the ECE control (control enzyme, without the product the ECE inhibitory activity of which one wishes to test), for which the measurement is carried out six times.
The percentage inhibition is calculated by establishing the relationship: [formula]
The blank is carried out starting with the solution obtained without enzyme.
From the cpm's obtained and by plotting the graph of the percentage of inhibition relative to the concentration of inhibitor (nM), the IC50 is calculated which therefore corresponds to the concentration which causes a 50% inhibition of ECE.

Row | Structure (SMILES) | IC50 [nM]
1 | O=C(CCCCCCCCCCOc1ccccc1)N[C@@H](CS)Cc1ccccc1 [Example 6] | 220
2 | N#Cc1ccccc1-c1ccc(CC(C(=O)O)C(=O)NC(CS)Cc2ccc(OS(=O)(=O)C(F)(F)F)cc2)cc1 (stereo not drawn) [Example 10, 2′-Cyano-alpha-[[[1-(mercaptomethyl) 2-(paratrifluoromethylsulphonyloxy)phenylethyl]amino]carbonyl](1,1′-biphenyl) 4-propanoic acid] | 150
3 | N#Cc1ccccc1-c1ccc(CC(C(=O)O)C(=O)N[C@@H](CS)Cc2ccccc2)cc1 (mixture of isomers) [Example 4, 2′-cyano-alpha-[[[1-(mercaptomethyl)-2-phenylethyl]amino]carbonyl]-(1,1′-biphenyl)-4-propanoic acid] | 30

Reference: patent US6420341B1, “Sulphur derivatives with a retroamide bond as endothelin-converting enzyme inhibitors” (Aventis Pharma S.A., priority 1996, dated 2002)
